Experimental data as given in US8242152B2, “Use of 4-[(4-thiazolyl)phenoxy]alkoxy-benzamidine derivatives for the prophylaxis and treatment of osteoporosis” (Dong Wha Pharmaceutical Co., Ltd., priority 2001, dated 2012).
“Also recorded” adds a separate entry of the source.

Experiments:
[1] = test system: LTB4-induced osteoclast formation; test: LTB4-induced osteoclast formation in rabbit osteoclast cultures, co-treatment and pre-treatment (Example 6); type: cell-based; conditions: dentin slices
Protocol: (§1) Rabbit osteoclasts were isolated as described by Victoria Tai's report (Doctoral Dissertation, 1997, Graduate Department of Pharmacology, University of Toronto) and Rraser P. Coxon et al. (Methods in Molecular Medicine, vol 80). Neonatal rabbits (New Zealand White) were sacrificed by ether-inhaling method under a hood. The removed long bones were dissected free of attached soft tissues and placed into ice-cold PBS. The long bones were cut longitudinally and mechanically curetted in 10 ml medium 199 with antibiotics (10 ug/ml penicillin G and 50 ug/ml gentamycin) in a glass Petri dish. Each bone was curetted with a scalpel blade and was finely minced. The fragments were then vigorously agitated by pipetting up and down using a pasteur pipette and vortex-mixed for 30 seconds. The fragments were allowed to settle and the cell suspension was then transferred to a 50 ml tube and the previous step repeated three times to a total volume of 40 ml. The bone fragments were allowed to settle (>1 min). The cell suspension was then transferred to a new 50 ml tube, passed through a 40 um cell strainer and centrifuged at 200 g for 8 minutes. The supernatant was removed and the pellet was immediately resuspended in α-MEM with 2% FBS (bicarbonate buffered medium).
(§2) 40 uL droplets of osteoclast-containing suspensions were plated onto 60 mm tissue culture plastic dishes or on dentine slices in 96-well microtiter plates in 2% medium. The cells were allowed ninety minutes for attachment before the addition of 2 mL α-MEM with 2% FBS. After 24 hr culture, cells were washed to remove non-adherent cells and replaced with fresh medium as describes below.
After 24 hr in culture, the medium was removed and replaced with fresh medium containing both LTB4 receptor antagonist (1000 nM) and LTB4 (100 nM) or both DW1350 (1000 nM) and LTB4 (100 nM). The cultures were continued for an additional 48 hrs.
After 6 hrs in culture, the medium was removed and cells were pretreated with LTB4 receptor antagonists such as LY292728 (Journal of Medical Chemistry, 1995, vol. 38, No. 10, p 4411-4432), SB209247 (Journal of Medical Chemistry, 1996, vol. 39, No. 19, p 3837-3841), LY293111(Journal of Medical Chemistry, 1995, vol. 38, No. 10, p 4411-4432) and LY223982 (Journal of Medical Chemistry, 1993, vol. 36, p 3333-3340) or DW1350-containing medium and culture continued for 18 hrs. The medium was replaced with medium containing both LTB4 receptor antagonist and LTB4 or DW1350 and LTB4. The cultures were continued for an additional 48 hrs.
(§3) All cells were cultured at 37° C. in a humidified atmosphere of 95% air and 5% CO2 in bicarbonate buffered medium at pH 7.4.
(§4) Differentiated osteoclasts are multinucleated cells and have specific enzyme activity, such as ‘tartrate-resistant acid phosphatase (TRAP)’. Therefore, Osteoclast formation was determined by counting the number of TRAP-positive multinucleated cells (TRAP(+) MNCs).
(§5) After culture, the cells were fixed with 10% neutral buffered formalin for 30 min at 4° C., washed twice in distilled water and stained for TRAP activity by incubating with substrate. The number of TRAP(+)MNC with more than 2 nuclei was counted under photomicroscope.
(§6) Results were expressed as mean number of TRAP(+)MNC±SD of All experiments were done at least twice. Statistical analysis was performed for each experiment by student t-test.

rabbit osteoclasts = test: TRAP(+) MNC formation in isolated rabbit osteoclast cultures, single treatment without LTB4 (Example 6); type: cell-based
Protocol: as §1, §2
After 24 hr in culture, the medium was replaced with fresh medium containing control, LTB4 receptor antagonists (1000 nM), DW1350 (10, 100 and 1000 nM) or LTB4 (100 nM) and the cultures were continued for an additional 48 hrs.
as §3, §4, §5, §6

Cc1nc(-c2ccc(OCCCCCOc3ccc(C(=N)NO)cc3)cc2)c(C(C)C)s1 [DW1350, N-hydroxy-4-{5-[4-(5-isopropyl-2-methyl-1,3-thiazol-4-yl)phenoxy]pentoxy}-benzamidine]
LTB4-stimulated osteoclast formation ([1]; pre-treatment 18 hrs, then 1000 nM compound + 100 nM LTB4 for 48 hrs): significant inhibition on LTB4-stimulated osteoclast formation
LTB4-stimulated osteoclast formation ([1]; simultaneous treatment: 1000 nM compound + 100 nM LTB4, 48 hrs): significant inhibition on LTB4-stimulated osteoclast formation
number of TRAP(+) MNCs / osteoclast formation (rabbit osteoclasts; 1000 nM, single treatment without LTB4, dentine slices, 48 hrs (FIG. 3-8)): significant inhibition on the formation of osteoclasts; also recorded: significantly inhibited it
cytotoxic effect based on cell morphology (rabbit osteoclasts; 10˜1000 nM, 48 hours): No cytotoxic effect based on cell morphology was not observed
number of TRAP(+) MNCs (rabbit osteoclasts; 10˜1000 nM, 48 hours, tissue culture dish, single treatment (FIG. 1, 2)): significantly decreased the number of TRAP(+) MNCs in a dose-dependent manner
